Laboratory results as given in patent publication US9273028B2, “Heterocyclic tyrosine kinase inhibitors” (Biogen MA Inc., priority 2010, dated 2016).

The molecules below were run against T1, BTK (Homo sapiens, UniProt Q06187) (assay: In vitro BTK kinase assay (BTK-POLYGAT-LS)). Settings: IC50 (10 uM ATP).
T1 construct: purchased Upstate 14-552
Assay type: biochemical
Experimental: In vitro BTK Kinase Assay
The purpose of the BTK in vitro assay is to determine compound potency against BTK through the measurement of IC50. […] For a typical assay, a 24 μL aliquot of a ATP/peptide master mix (final concentration; ATP 10 μM, polyGAT 100 nM) in kinase buffer (10 mM Tris-HCl pH 7.5, 10 mM MgCl2, 200 μM Na3PO4, 5 mM DTT, 0.01% Triton X-100, and 0.2 mg/ml casein) is added to each well. […] The assay is incubated for 30 minutes before being stopped with 28 μL of a 50 mM EDTA solution. […] The plate is covered and incubated for 45 minutes at room temperature.

T1 sequence (Q06187 whole entry): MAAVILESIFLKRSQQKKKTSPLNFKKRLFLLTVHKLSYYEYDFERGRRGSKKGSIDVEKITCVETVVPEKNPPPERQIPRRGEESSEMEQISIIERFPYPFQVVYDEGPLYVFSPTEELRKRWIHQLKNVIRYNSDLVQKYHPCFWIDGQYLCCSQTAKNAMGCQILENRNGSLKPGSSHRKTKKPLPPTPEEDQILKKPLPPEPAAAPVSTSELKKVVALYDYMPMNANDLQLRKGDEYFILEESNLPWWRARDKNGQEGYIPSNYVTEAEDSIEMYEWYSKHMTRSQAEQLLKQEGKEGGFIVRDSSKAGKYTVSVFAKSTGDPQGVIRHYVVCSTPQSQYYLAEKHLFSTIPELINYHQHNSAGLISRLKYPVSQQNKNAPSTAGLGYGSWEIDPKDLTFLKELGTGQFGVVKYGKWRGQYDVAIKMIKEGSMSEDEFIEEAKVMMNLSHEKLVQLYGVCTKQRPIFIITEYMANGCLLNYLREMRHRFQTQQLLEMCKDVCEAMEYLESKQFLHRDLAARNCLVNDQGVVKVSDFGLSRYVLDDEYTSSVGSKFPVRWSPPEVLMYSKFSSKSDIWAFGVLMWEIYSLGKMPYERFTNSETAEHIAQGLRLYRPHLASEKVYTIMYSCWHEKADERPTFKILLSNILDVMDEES

SMILES | IC50
O=C(CNc1cc(Cl)cc(Cl)c1)N1CCC[C@@H](Nc2c(-c3ccc(C(=O)N4CCC(O)CC4)cc3)cnc3[nH]ccc23)C1 [Compound 2] | < 100 nM
O=C(CNc1cc(Cl)cc(Cl)c1)N1CCC[C@@H](Nc2c(-c3ccc(C(=O)N4CCOCC4)cc3)cnc3[nH]ccc23)C1 [Compound 3] | < 100 nM
CCC1C(Nc2ncnc(N)c2F)CCCN1C(=O)CNc1cc(F)cc(Cl)c1 (stereo not shown) [Compound 5] | 1000 to 10000 nM
O=C(CNc1cc(Cl)cc(Cl)c1)N1CCC[C@@H](Nc2ncnc3[nH]cc(F)c23)C1 [Compound 6] | 100 to 999 nM
Nc1ncnc(N[C@@H]2CCCN(C(=O)CNc3cc(Cl)cc(Cl)c3)C2)c1Cl [Compound 8] | 1000 to 10000 nM
CN(c1ncnc2[nH]ccc12)C1CCCN(C(=O)CNc2cc(F)cc(Cl)c2)C1C(F)(F)F (stereo not shown) [Compound 9] | < 100 nM
O=C(CNc1cc(Cl)cc(Cl)c1)N1CCC[C@@H](Nc2ncnc3[nH]ccc23)[C@H]1C(F)(F)F [Compound 12] | < 100 nM
CN(c1ncnc2[nH]ccc12)C1CCCN(C(=O)CNc2cc(Cl)cc(C(F)(F)F)c2)C1C(F)(F)F (stereo not shown) [Compound 13] | < 100 nM
CN(c1ncnc2[nH]ccc12)C1CCCN(C(=O)CNc2ccccc2)C1C(F)(F)F (stereo not shown) [Compound 15] | < 100 nM
CN(c1ncnc2[nH]ccc12)C1CCCN(C(=O)CNc2cccc(Cl)c2)C1C(F)(F)F (stereo not shown) [Compound 16] | < 100 nM
O=C(CNc1ccccc1)N1CCCC(Nc2ncnc3[nH]ccc23)C1C(F)(F)F (stereo not shown) [Compound 18] | 100 to 999 nM
O=C(CNc1cc(Cl)cc(Cl)c1)N1CCCC(Nc2ncnc3[nH]ccc23)C1C(F)(F)F (stereo not shown) [Compound 19] | < 100 nM
C[C@H]1[C@@H](Nc2ncnc3[nH]ncc23)CCCN1C(=O)CNc1ccccc1S(=O)(=O)N1CCCCC1 [Compound 21] | 1000 to 10000 nM
C[C@@H]1[C@H](Nc2ncnc3[nH]ncc23)CCCN1C(=O)CNc1ccccc1S(=O)(=O)N1CCCCC1 [Compound 22] | < 100 nM
C[C@@H]1[C@@H](Nc2ncnc3[nH]ncc23)CCCN1C(=O)CNc1cc(F)cc(Cl)c1 [Compound 24] | 1000 to 10000 nM
C[C@H]1[C@@H](Nc2ncnc3[nH]ncc23)CCCN1C(=O)CNc1cc(F)cc(Cl)c1 [Compound 27] | 100 to 999 nM
C[C@@H]1[C@@H](Nc2ncnc3[nH]ncc23)CCCN1C(=O)CNc1cc(Cl)cc(Cl)c1 [Compound 28] | 100 to 999 nM
C[C@H]1[C@@H](Nc2ncnc3[nH]ncc23)CCCN1C(=O)CNc1cc(Cl)cc(Cl)c1 [Compound 31] | < 100 nM
CC(C)C1C(Nc2ncnc3[nH]ccc23)CCCN1C(=O)CNc1cc(Cl)cc(Cl)c1 (stereo not shown) [Compound 34] | < 100 nM
O=C(CNc1cc(Cl)cc(Cl)c1)N1CCC[C@@H](N(CCO)c2ncnc3[nH]ccc23)C1 [Compound 35] | < 100 nM
CN(C)C(=O)CN(c1ncnc2[nH]ccc12)[C@@H]1CCCN(C(=O)CNc2cc(Cl)cc(Cl)c2)C1 [Compound 40] | 100 to 999 nM
CCC1CC2CCN(C(=O)CNc3cc(Cl)cc(Cl)c3)CC2N1c1ncnc2[nH]ccc12 (stereo not shown) [Compound 42] | < 100 nM
O=C(CNc1cc(Cl)cc(Cl)c1)N1CCCC(N(CCO)c2ncnc3[nH]ccc23)C1 (stereo not shown) [Compound 43] | < 100 nM
C[C@@H]1C[C@H]2CCN(C(=O)CNc3cc(Cl)cc(Cl)c3)C[C@H]2N1c1ncnc2[nH]ccc12 [Compound 47] | < 100 nM

SMILES | IC50
CC1C(N(C)c2ncnc(N)c2F)CCCN1C(=O)CNc1cc(Cl)cc(Cl)c1 (stereo not shown) [Compound 49] | < 100 nM
O=C(CNc1cc(Cl)cc(Cl)c1)N1CCOCC(Nc2ncnc3[nH]cnc23)C1 (stereo not shown) [Compound 50] | 100 to 999 nM
CC1C(Nc2ncnc3[nH]ccc23)CCCN1C(=O)[C@H](Nc1cc(Cl)cc(Cl)c1)C1CC1 (stereo partly shown) [Compound 51] | 100 to 999 nM
CC1C(Nc2ncnc3[nH]ncc23)CCCN1C(=O)[C@H](Nc1cc(Cl)cc(Cl)c1)C1CC1 (stereo partly shown) [Compound 52] | < 100 nM
O=C1C(Nc2cc(F)cc(Cl)c2)CC2CCC(Nc3ncnc4[nH]ccc34)CN12 (stereo not shown) [Compound 53] | 1000 to 10000 nM
C[C@@H](Nc1cc(Cl)cc(Cl)c1)C(=O)N1CCC2CCN(c3ncnc4[nH]ccc34)C2C1 (stereo partly shown) [Compound 56] | < 100 nM
CC1C(Nc2ncnc3[nH]ncc23)CCCN1C(=O)[C@@H](C)Nc1cc(Cl)cc(Cl)c1 (stereo partly shown) [Compound 60] | < 100 nM
CCC[C@@H](Nc1cc(Cl)cc(Cl)c1)C(=O)N1CCCC(Nc2ncnc3[nH]ncc23)C1C (stereo partly shown) [Compound 61] | < 100 nM
CC1C(Nc2ncnc3[nH]ncc23)CCCN1C(=O)CNc1ccccc1S(=O)(=O)c1ccccc1 (stereo not shown) [Compound 63] | < 100 nM
CCC[C@@H](Nc1cc(Cl)cc(Cl)c1)C(=O)N1CCCC(Nc2ncnc3[nH]ccc23)C1C (stereo partly shown) [Compound 64] | < 100 nM
CC1C(Nc2ncnc3[nH]ccc23)CCCN1C(=O)CNc1ccccc1S(=O)(=O)N1CCCCC1 (stereo not shown) [Compound 66] | < 100 nM
CC1C(Nc2ncnc3[nH]ncc23)CCCN1C(=O)CNc1cc(F)cc(Cl)c1 (stereo not shown) [Compound 68] | < 100 nM
CC1C(Nc2ncnc3[nH]ncc23)CCCN1C(=O)CNc1ccccc1S(=O)(=O)C1CCCC1 (stereo not shown) [Compound 69] | < 100 nM
CC1C(Nc2ncnc3[nH]ncc23)CCCN1C(=O)CNc1ccccc1S(=O)(=O)N1CCCC1 (stereo not shown) [Compound 70] | < 100 nM
CC1C(Nc2ncnc3[nH]ccc23)CCCN1C(=O)CNc1cc(F)cc(Cl)c1 (stereo not shown) [Compound 71] | < 100 nM
CC1C(Nc2ncnc3[nH]ccc23)CCCN1C(=O)CNc1ccccc1S(=O)(=O)C1CCCC1 (stereo not shown) [Compound 73] | < 100 nM
CC1CC2CCN(C(=O)CNc3cc(Cl)cc(Cl)c3)CC2N1c1ncnc2[nH]ccc12 (stereo not shown) [Compound 74] | < 100 nM
O=C(CNc1ccc(F)c(Cl)c1)N1CCC2CCN(c3ncnc4[nH]ccc34)C2C1 (stereo not shown) [Compound 77] | < 100 nM
CC1C(Nc2ncnc3[nH]ccc23)CCCN1C(=O)CNc1cc(Cl)cc(C(F)(F)F)c1 (stereo not shown) [Compound 80] | < 100 nM
CC1C(Nc2ncnc3[nH]ccc23)CCCN1C(=O)[C@@H](C)Nc1cc(Cl)cc(Cl)c1 (stereo partly shown) [Compound 81] | < 100 nM
NC(=O)c1c(N)ncnc1NC1CCCN(C(=O)CNc2cc(Cl)cc(Cl)c2)C1 (stereo not shown) [Compound 82] | > 10000 nM
CNc1cc(NC2CCCN(C(=O)CNc3cc(Cl)cc(Cl)c3)C2)ncn1 (stereo not shown) [Compound 83] | 100 to 999 nM
CC(=O)Nc1cc(NC2CCCN(C(=O)CNc3cc(Cl)cc(Cl)c3)C2)ncn1 (stereo not shown) [Compound 85] | 1000 to 10000 nM

Now from value to molecule:

IC50 | SMILES
< 100 nM | CN1CCN(C(=O)c2ccc(-c3cnc4[nH]ccc4c3N[C@H]3CCCN(C(=O)CNc4cc(Cl)cc(Cl)c4)C3)cc2)CC1 [Compound 1]
< 100 nM | CCC1C(Nc2ncnc3[nH]ncc23)CCCN1C(=O)CNc1cc(F)cc(Cl)c1 (stereo not shown) [Compound 4]
100 to 999 nM | CCC1C(Nc2ncnc3[nH]ccc23)CCCN1C(=O)CNc1cc(F)cc(Cl)c1 (stereo not shown) [Compound 7]
1000 to 10000 nM | O=C(CNc1cc(Cl)cc(Cl)c1)N1CCC[C@@H](Nc2ncnc3[nH]cnc23)C1 [Compound 10]
100 to 999 nM | O=C(CNc1cc(Cl)cc(Cl)c1)N1CCC[C@H](Nc2ncnc3[nH]ccc23)[C@@H]1C(F)(F)F [Compound 11]
< 100 nM | CN(c1ncnc2[nH]ccc12)C1CCCN(C(=O)CNc2cc(Cl)cc(Cl)c2)C1C(F)(F)F (stereo not shown) [Compound 14]
< 100 nM | O=C(CNc1cc(Cl)cc(C(F)(F)F)c1)N1CCCC(Nc2ncnc3[nH]ccc23)C1C(F)(F)F (stereo not shown) [Compound 17]
< 100 nM | O=C(CNc1cccc(Cl)c1)N1CCCC(Nc2ncnc3[nH]ccc23)C1C(F)(F)F (stereo not shown) [Compound 20]
100 to 999 nM | C[C@H]1[C@H](Nc2ncnc3[nH]ncc23)CCCN1C(=O)CNc1cc(F)cc(Cl)c1 [Compound 26]
100 to 999 nM | C[C@H]1[C@H](Nc2ncnc3[nH]ncc23)CCCN1C(=O)CNc1cc(Cl)cc(Cl)c1 [Compound 30]
< 100 nM | O=C(CNc1cc(Cl)cc(Cl)c1)N1CCCC(Nc2ncnc3[nH]ccc23)C1C1CCCC1 (stereo not shown) [Compound 33]
1000 to 10000 nM | O=C(O)CN(c1ncnc2[nH]ccc12)[C@@H]1CCCN(C(=O)CNc2cc(Cl)cc(Cl)c2)C1 [Compound 36]
100 to 999 nM | CCCCC1C(Nc2ncnc3[nH]ccc23)CCCN1C(=O)CNc1cc(Cl)cc(Cl)c1 (stereo not shown) [Compound 41]
< 100 nM | C[C@@H]1C[C@@H]2CCN(C(=O)CNc3cc(Cl)cc(Cl)c3)C[C@@H]2N1c1ncnc2[nH]ccc12 [Compound 46]
1000 to 10000 nM | O=C(CNc1cc(Cl)cc(Cl)c1)N1CCCC(N(CCN2CCCC2)c2ncnc3[nH]ccc23)C1 (stereo not shown) [Compound 54]
< 100 nM | CC1C(N(C)c2ncnc3[nH]ncc23)CCCN1C(=O)CNc1cc(Cl)cc(Cl)c1 (stereo not shown) [Compound 55]
< 100 nM | CC1C2C(CCN1C(=O)CNc1cc(Cl)cc(Cl)c1)CCN2c1ncnc2[nH]ccc12 (stereo not shown) [Compound 57]
< 100 nM | CC1C(Nc2ncnc3[nH]ncc23)CCCN1C(=O)CNc1cc(Cl)cc(C(F)(F)F)c1 (stereo not shown) [Compound 58]
< 100 nM | CC1C(Nc2ncnc(N)c2F)CCCN1C(=O)CNc1cc(Cl)cc(Cl)c1 (stereo not shown) [Compound 62]
< 100 nM | CC[C@@H](Nc1cc(Cl)cc(Cl)c1)C(=O)N1CCCC(Nc2ncnc3[nH]ncc23)C1C (stereo partly shown) [Compound 65]
< 100 nM | CC[C@@H](Nc1cc(Cl)cc(Cl)c1)C(=O)N1CCCC(Nc2ncnc3[nH]ccc23)C1C (stereo partly shown) [Compound 72]
< 100 nM | CC1C(Nc2ncnc3[nH]ccc23)CCCN1C(=O)CNc1ccccc1S(=O)(=O)c1ccccc1 (stereo not shown) [Compound 75]
< 100 nM | CC1C(Nc2ncnc3[nH]ccc23)CCCN1C(=O)CNc1ccccc1S(=O)(=O)N1CCCC1 (stereo not shown) [Compound 79]
100 to 999 nM | CC(C)N(c1ncnc2[nH]ccc12)C1CCCN(C(=O)CNc2cc(Cl)cc(Cl)c2)C1 (stereo not shown) [Compound 84]
100 to 999 nM | O=C(CNc1cc(Cl)cc(Cl)c1)N1CCCC(N(CCN2CCOCC2)c2ncnc3[nH]ccc23)C1 (stereo not shown) [Compound 86]
< 100 nM | CC1CC(N(C)c2ncnc3[nH]ncc23)CN(C(=O)CNc2cc(Cl)cc(Cl)c2)C1 (stereo not shown) [Compound 87]
